# How the values were obtained:
# [1] = test system: cycloisomaltotetraose-forming enzyme from Agreia sp. D1110 (NITE BP-02815); assay: Substrate specificity of cycloisomaltotetraose-forming enzyme (TLC of reaction mixtures); format: biochemical; conditions: substrate 1% (w/v), 20 units/g-solid of enzyme, pH 6.0, 40°C, 24 hours; note: key: - : Not formed; + : Slightly formed; ++ : Formed; +++ : Significantly formed
# From the text: Substrate specificity of cycloisomaltotetraose-forming enzyme was investigated using various saccharides as substrates. Aqueous solutions containing D-glucose, maltose, isomaltose, panose, isomaltotriose, isomaltotetraose, isomaltopentaose, isomaltohexaose, isomaltoheptaose, dextran T10 (average molecular weight: 10,000, commercialized by Pharmacosmos A/s., Denmark), dextran T70 (average molecular weight: 70,000, commercialized by Pharmacosmos A/s., Denmark), or dextran T2000 (average molecular weight: 2,000,000, commercialized by Pharmacosmos A/s., Denmark) were prepared as substrate solutions. To each substrate solution, acetate buffer and calcium chloride were added to give final concentrations of 50 mM and 1 mM, respectively, and then resulting solutions were admixed with 20 units/g-solid of cycloisomaltotetraose-forming enzyme from Agreia sp. […] To examine the saccharides in each reaction mixture before and after the reaction, saccharides were separated by silica gel thin-layer chromatography (hereinafter, abbreviated as "TLC") using "[…] 60F254", a TLC aluminum plate (10 x 20 cm) and a solvent (2-propanol/1-butanol/water, volume ratio of 12:3:4) with two-times ascending method. The separated saccharides on the plate were detected by visualizing the spots with sulfate-methanol method, and the degree of forming cycloisomaltotetraose from each substrate and the products other than cycloisomaltotetraose were investigated.
# α-glucosidase = target: T1, α-glucosidase (Aspergillus niger, UniProt P56526); assay: Preliminary test: hydrolysis by α-glucosidase; format: biochemical; conditions: preliminary test using a small amount of the reaction product
# T1 construct: purchased Amano Enzyme Co., Ltd. TRANSGLUCOSIDASE L Amano
# Method: (§1) The enzymatic reaction product containing Unknown Saccharide I, obtained in Experiment 1-2, was adjusted to pH 5.0, admixed with 100 U/g-solid of "TRANSGLUCOSIDASE L Amano", α-glucosidase produced by Amano Enzyme Co., Ltd., and 1,000 U/g-solid of glucoamylase commercialized by Nagase ChemteX Co., Ltd., and then reacted at 50°C for 4 days. After the reaction, the reaction was stopped by heating the reaction mixture at about 100°C for 10 min. The saccharides in the resulting reaction mixture were analyzed by analytical high-performance liquid chromatography (hereinafter, abbreviated as "analytical HPLC"). As a result, D-glucose and Unknown Saccharide I were detected at elution times of 58.7 min and 49.4 min, respectively. The saccharide composition of the reaction mixture is 30.0% (w/w) of D-glucose, 65.5% (w/w) of Unknown Saccharide I, and 4.5% (w/w) of partial dextran hydrolysates containing isomaltooligosaccharides.
# [2] = Preliminary test: alkaline treatment; format: physicochemical; conditions: preliminary test using a small amount of the reaction product
# [3] = Thermal stability of cycloisomaltotetraose in aqueous solution; format: physicochemical; conditions: 7% (w/v) aqueous solution, 120°C
# Method: An aqueous cycloisomaltotetraose solution with a solid concentration of 7% (w/v) was prepared by dissolving the crystalline cycloisomaltotetraose preparation with a purity of 99.5% by weight, obtained in Experiment 3-1. Eight milliliters each of the aqueous solution was taken in a glass centrifuge tube with a screw cap, sealed, and then heated for 30 to 90 min at 120°C. The solutions before heating and those after heating for various times were subjected to the measurement for the degree of coloring and for the cycloisomaltotetraose purity by HPLC method. The degree of coloring was defined as the absorbance at 480 nm measured by using a 1-cm cell.
# glucoamylase = assay: Preliminary test: hydrolysis by glucoamylase; format: biochemical; conditions: preliminary test using a small amount of the reaction product
# Method: as §1
# [4] = pH stability of cycloisomaltotetraose; format: physicochemical; conditions: 4% (w/v), 100°C; for Degree of coloring (A480nm): 24 hours; for remaining at 24 h: read-out: Purity of cycloisomaltotetraose (% by weight)
# Method: The crystalline cycloisomaltotetraose preparation obtained in Experiment 3-1 was dissolved in various buffers to make 7 kinds of aqueous cycloisomaltotetraose solutions with a cycloisomaltotetraose concentration of 4% (w/v), and with the pH adjusted to 3 to 9. Eight milliliters each of the aqueous solution was taken into a glass centrifuge tube with a screw cap, sealed, and heated at 100°C for 24 hours. After cooling them, the measurement for the degree of coloring degree of those aqueous solution and for the cycloisomaltotetraose purity were carried out in the same manner in Experiment 16.
# [5] = Digestivity test using small intestinal mucosal enzyme; format: in vitro ADME; conditions: rat, small intestine mucosal enzyme, 1% by weight, pH 6.0, 50 units/g-cycloisomaltotetraose, 37°C, read-out: residual rate (%) of cycloisomaltotetraose after the enzymatic reaction
# Method: To the substrate solution, 50 units/g-cycloisomaltotetraose, as maltose-hydrolyzing activity, of small intestine mucosal enzyme (α-glucosidase) prepared from rat small intestine acetone powder, commercialized by Sigma-Aldrich Co., was added, and the resulting mixture was incubated at 37°C for 24 hours and then heated at 100°C for 10 min to inactivate the enzyme. The amounts of cycloisomaltotetraose in the solution before and after the reaction were determined by HPLC, and the residual rate (%) of cycloisomaltotetraose after the enzymatic reaction, i.e., (the amount after the reaction/the amount before the reaction) x 100, was measured.
# [6] = test system: cycloisomaltotetraose-forming enzyme from Agreia sp. D1110 (NITE BP-02815); assay: Action of cycloisomaltotetraose-forming enzyme on isomaltopentaose (TLC); format: biochemical; conditions: 1% (w/v) isomaltopentaose, 2.0 units/g-isomaltopentaose, pH 6.0, 40°C, 24 hours
# Method: As a part of examining the substrate specificity of cycloisomaltotetraose-forming enzyme, the action of the enzyme on isomaltopentaose was investigated. To 0.5 mL of 50 mM acetate buffer (pH 6.0) containing 1% (w/v) of isomaltopentaose (prepared in Hayashibara Co., Ltd., Okayama, Japan, purity: 98.1% by weight) and 0.006% (w/v) hinokitiol as a preservative, 2.0 units/g-isomaltopentaose of a purified cycloisomaltotetraose-forming enzyme from Agreia sp. D1110 (NITE BP-02815), obtained by the method in Experiment 6, was added, and the resulting mixture was incubated at 40°C for 24 hours and then heated at 100°C for 10 min to inactivate the enzyme. To examine the reaction products in the reaction mixture, saccharides were separated by TLC using "KIESELGEL 60", a TLC aluminum plate (10 x 20 cm) and a solvent (acetonitrile/water/ethyl acetate/1-propanol, volume ratio of 85:70:20:50) and two-times ascending method. The separated saccharides on the plate were detected by visualizing the spots with sulfate-methanol method, and the reaction products formed from isomaltopentaose were investigated.
# T1 sequence (P56526 26-985): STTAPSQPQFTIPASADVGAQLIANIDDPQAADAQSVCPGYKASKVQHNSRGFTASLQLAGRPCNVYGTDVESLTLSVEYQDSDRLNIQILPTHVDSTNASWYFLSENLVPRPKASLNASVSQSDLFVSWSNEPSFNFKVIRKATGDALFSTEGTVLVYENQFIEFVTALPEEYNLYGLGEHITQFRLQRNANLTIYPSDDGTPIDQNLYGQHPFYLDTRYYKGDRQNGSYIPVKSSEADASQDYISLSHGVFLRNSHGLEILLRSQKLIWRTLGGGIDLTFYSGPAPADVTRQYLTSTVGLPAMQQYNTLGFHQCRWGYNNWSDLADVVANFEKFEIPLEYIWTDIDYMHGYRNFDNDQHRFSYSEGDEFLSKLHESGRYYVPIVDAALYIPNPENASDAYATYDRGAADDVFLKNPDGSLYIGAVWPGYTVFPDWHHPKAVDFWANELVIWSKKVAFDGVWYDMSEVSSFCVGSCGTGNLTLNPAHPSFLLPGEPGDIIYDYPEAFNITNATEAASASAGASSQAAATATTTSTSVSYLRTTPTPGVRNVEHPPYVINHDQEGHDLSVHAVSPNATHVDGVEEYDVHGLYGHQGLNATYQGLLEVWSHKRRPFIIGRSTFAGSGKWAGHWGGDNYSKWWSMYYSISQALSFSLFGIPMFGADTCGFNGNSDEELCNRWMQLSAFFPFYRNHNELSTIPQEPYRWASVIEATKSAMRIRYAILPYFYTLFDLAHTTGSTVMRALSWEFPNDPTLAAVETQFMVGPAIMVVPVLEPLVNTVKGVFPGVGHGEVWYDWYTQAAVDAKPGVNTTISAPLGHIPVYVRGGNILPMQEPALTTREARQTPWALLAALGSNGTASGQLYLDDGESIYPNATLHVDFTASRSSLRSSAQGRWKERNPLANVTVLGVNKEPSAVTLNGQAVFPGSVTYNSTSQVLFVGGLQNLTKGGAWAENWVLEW
smiles,measurement,setting,value
"OC[C@H]1O[C@H](O[C@H]2[C@H](O)[C@@H](O)C(O)O[C@@H]2CO)[C@H](O)[C@@H](O)[C@@H]1O (mixture of isomers) [Maltose, maltose]",Formation of cycloisomaltotetraose,[1],-
"OC[C@H]1O[C@H](OC[C@H]2O[C@H](OC[C@H]3O[C@H](OC[C@H]4O[C@H](OC[C@H]5O[C@H](OC[C@H]6OC(O)[C@H](O)[C@@H](O)[C@@H]6O)[C@H](O)[C@@H](O)[C@@H]5O)[C@H](O)[C@@H](O)[C@@H]4O)[C@H](O)[C@@H](O)[C@@H]3O)[C@H](O)[C@@H](O)[C@@H]2O)[C@H](O)[C@@H](O)[C@@H]1O (stereo partly drawn) [Isomaltohexaose, isomaltohexaose]",Formation of cycloisomaltotetraose,[1],+++
"OC[C@H]1O[C@H](OC[C@H]2O[C@H](OC[C@H]3O[C@H](OC[C@H]4O[C@H](OC[C@H]5O[C@H](OC[C@H]6O[C@H](OC[C@H]7OC(O)[C@H](O)[C@@H](O)[C@@H]7O)[C@H](O)[C@@H](O)[C@@H]6O)[C@H](O)[C@@H](O)[C@@H]5O)[C@H](O)[C@@H](O)[C@@H]4O)[C@H](O)[C@@H](O)[C@@H]3O)[C@H](O)[C@@H](O)[C@@H]2O)[C@H](O)[C@@H](O)[C@@H]1O (stereo partly drawn) [Isomaltoheptaose, isomaltoheptaose]",Formation of cycloisomaltotetraose,[1],+++
"OC[C@H]1O[C@H](OC[C@H]2O[C@H](OC[C@H]3OC(O)[C@H](O)[C@@H](O)[C@@H]3O)[C@H](O)[C@@H](O)[C@@H]2O)[C@H](O)[C@@H](O)[C@@H]1O (stereo partly drawn) [Isomaltotriose, isomaltotriose]",Formation of cycloisomaltotetraose,[1],-
"O[C@@H]1[C@@H](O)[C@H]2OC[C@H]3O[C@H](OC[C@H]4O[C@H](OC[C@H]5O[C@H](OC[C@@H](O2)[C@H]1O)[C@H](O)[C@@H](O)[C@@H]5O)[C@H](O)[C@@H](O)[C@@H]4O)[C@H](O)[C@@H](O)[C@@H]3O [cycloisomaltotetraose, cyclo{→6)-α-D-glucopyranosyl-(1→6)-α-D-glucopyranosyl-(1→6)-α-D-glucopyranosyl-(1→6)-α-D-glucopyranosyl-(1→}]",hydrolysis by α-glucosidase,α-glucosidase,not hydrolyzed
same,decomposition by alkaline treatment,[2],not decomposed
same,Degree of coloring (A480nm),[3]; heating time 0 min,0.000 A480nm
same,Purity of cycloisomaltotetraose (% by weight),[3]; heating time 0 min,99.5 % by weight
same,Degree of coloring (A480nm),[3]; heating time 30 min,0.000 A480nm
same,Degree of coloring (A480nm),[3]; heating time 60 min,0.000 A480nm
same,Degree of coloring (A480nm),[3]; heating time 90 min,0.000 A480nm
same,remaining at 0.5 h,"[3]; water, heating time 30 min, read-out: Purity of cycloisomaltotetraose (% by weight)",99.5%
same,remaining at 1 h,"[3]; water, heating time 60 min, read-out: Purity of cycloisomaltotetraose (% by weight)",99.5%
same,remaining at 1.5 h,"[3]; water, heating time 90 min, read-out: Purity of cycloisomaltotetraose (% by weight)",99.5%
same,hydrolysis by glucoamylase,glucoamylase,not hydrolyzed
same,Degree of coloring (A480nm),"[4]; pH 3, Acetate buffer",0.000 A480nm
same,remaining at 24 h,"[4]; pH 3, Acetate buffer",93.5%
same,Degree of coloring (A480nm),"[4]; pH 4, Acetate buffer",0.000 A480nm
same,remaining at 24 h,"[4]; pH 4, Acetate buffer",99.4%
same,Degree of coloring (A480nm),"[4]; pH 5, Acetate buffer",0.000 A480nm
same,remaining at 24 h,"[4]; pH 5, Acetate buffer",99.4%
same,Degree of coloring (A480nm),"[4]; pH 6, Tris-HCl buffer",0.000 A480nm
same,remaining at 24 h,"[4]; pH 6, Tris-HCl buffer",99.4%
same,Degree of coloring (A480nm),"[4]; pH 7, Tris-HCl buffer",0.000 A480nm
same,remaining at 24 h,"[4]; pH 7, Tris-HCl buffer",99.5%
same,Degree of coloring (A480nm),"[4]; pH 8, Tris-HCl buffer",0.001 A480nm
same,remaining at 24 h,"[4]; pH 8, Tris-HCl buffer",99.5%
same,Degree of coloring (A480nm),"[4]; pH 9, Ammonium buffer",0.000 A480nm
same,remaining at 24 h,"[4]; pH 9, Ammonium buffer",99.4%
same,remaining at 24 h,[5],91.6%
"OC[C@H]1O[C@H](OC[C@H]2OC(O)[C@H](O)[C@@H](O)[C@@H]2O)[C@H](O)[C@@H](O)[C@@H]1O (stereo partly drawn) [Isomaltose, isomaltose]",Formation of cycloisomaltotetraose,[1],-
"OC[C@H]1O[C@H](OC[C@H]2O[C@H](OC[C@H]3O[C@H](OC[C@H]4O[C@H](OC[C@H]5OC(O)[C@H](O)[C@@H](O)[C@@H]5O)[C@H](O)[C@@H](O)[C@@H]4O)[C@H](O)[C@@H](O)[C@@H]3O)[C@H](O)[C@@H](O)[C@@H]2O)[C@H](O)[C@@H](O)[C@@H]1O (stereo partly drawn) [Isomaltopentaose, isomaltopentaose]",reaction products formed from isomaltopentaose,[6],"produces cycloisomaltotetraose with isomaltotetraose, also slightly isomaltotriose, isomaltose, glucose and high molecular glucans"
same,Formation of cycloisomaltotetraose,[1],++
"OC[C@H]1O[C@H](OC[C@H]2O[C@H](OC[C@H]3O[C@H](OC[C@H]4OC(O)[C@H](O)[C@@H](O)[C@@H]4O)[C@H](O)[C@@H](O)[C@@H]3O)[C@H](O)[C@@H](O)[C@@H]2O)[C@H](O)[C@@H](O)[C@@H]1O (stereo partly drawn) [Isomaltotetraose, isomaltotetraose]",Formation of cycloisomaltotetraose,[1],+
"OC[C@H]1OC(O)[C@H](O)[C@@H](O)[C@@H]1O (stereo partly drawn) [D-Glucose, D-glucose]",Formation of cycloisomaltotetraose,[1],-
"OCC1OC(OCC2OC(OC3C(CO)OC(O)C(O)C3O)C(O)C(O)C2O)C(O)C(O)C1O (stereo not drawn) [Panose, panose]",Formation of cycloisomaltotetraose,[1],-

# From patent EP3895711A1, “CYCLOISOMALTOTETRAOSE, CYCLOISOMALTOTETRAOSE PRODUCTION ENZYME, AND PRODUCTION METHODS AND USES THEREOF” (Hayashibara Co., Ltd., priority 2018, dated 2020)
